The values that follow come from patent US20140005163A1 (NOVARTIS AG, priority 2010, published 2014).

Assay [1] deals with S6 Ribosomal Protein phosphorylation Ser235/236 in TSC1 null mouse embryo fibroblast (MEF) cells. Description: Reverse protein array assay, S6 Ribosomal Protein phosphorylation Ser235/236 in TSC1 null MEF cells. The settings on record: 1 h, pS6 ribosomal protein Ser235/236, 60 minutes incubation, read-out: p-S6 IC50. Type of assay: cell-based. The procedure, abridged: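 TSC1−/− MEFs, seeded and held ≥20 h at 37 °C/5% CO2, were exposed to 8-step serial compound dilutions (0.02% DMSO final; DMSO vehicle control) for 60 min at 37 °C. Cells were then lysed on ice for 10 min and lysates spotted onto reverse protein array chips.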

Another assay concerns the target T1, PI3K gamma (Homo sapiens, UniProt P48736).
T1 construct: His tag (C); made in house; host or cells: baculovirus (pVL1393); Tn5 or TiniPro insect cells; construct from Roger Williams lab, MRC LMB
Description: PI3K gamma kinase assay (Kinase-Glo luminescence). The assay is classed as biochemical. The procedure, abridged:
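PI3Kγ (150 nM) reaction run 120 min at room temperature with phosphatidylinositol substrate (10 μg/mL) and ATP (1 μM) in Tris pH 7.5 buffer containing MgCl2, NaCl, CHAPS and DTT. Remaining ATP detected by Kinase-Glo luminescence; 8 concentrations per compound, IC50 from 4-parameter curve fitting.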
(In general: Kinase-Glo reads ATP consumption through a luciferase reaction.)

T1 sequence (P48736 144-1102 limits assumed): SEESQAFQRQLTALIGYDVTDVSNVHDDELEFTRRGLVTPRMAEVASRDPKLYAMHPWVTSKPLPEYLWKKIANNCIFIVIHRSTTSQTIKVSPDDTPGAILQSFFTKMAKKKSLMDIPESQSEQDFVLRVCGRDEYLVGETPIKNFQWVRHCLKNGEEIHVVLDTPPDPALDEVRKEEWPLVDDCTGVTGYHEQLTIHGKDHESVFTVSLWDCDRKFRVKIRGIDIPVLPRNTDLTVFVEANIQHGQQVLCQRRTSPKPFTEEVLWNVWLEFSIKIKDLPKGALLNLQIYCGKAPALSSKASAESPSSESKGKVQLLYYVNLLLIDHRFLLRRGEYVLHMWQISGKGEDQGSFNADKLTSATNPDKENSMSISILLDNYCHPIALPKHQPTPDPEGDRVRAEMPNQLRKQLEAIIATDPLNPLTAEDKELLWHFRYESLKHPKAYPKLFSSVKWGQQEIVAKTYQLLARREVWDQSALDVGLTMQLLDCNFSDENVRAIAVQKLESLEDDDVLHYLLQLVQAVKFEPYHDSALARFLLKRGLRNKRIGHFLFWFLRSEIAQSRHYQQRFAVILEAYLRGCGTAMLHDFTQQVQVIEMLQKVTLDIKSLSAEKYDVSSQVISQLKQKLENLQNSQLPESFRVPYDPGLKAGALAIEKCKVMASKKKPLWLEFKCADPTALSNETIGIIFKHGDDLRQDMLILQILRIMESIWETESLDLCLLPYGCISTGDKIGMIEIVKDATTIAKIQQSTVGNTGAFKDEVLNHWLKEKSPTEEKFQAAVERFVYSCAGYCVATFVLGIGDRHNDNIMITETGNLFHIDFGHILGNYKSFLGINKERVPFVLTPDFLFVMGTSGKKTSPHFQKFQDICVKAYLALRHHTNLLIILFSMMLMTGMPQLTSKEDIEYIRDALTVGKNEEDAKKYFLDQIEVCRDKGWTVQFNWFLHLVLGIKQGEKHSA

Usually IC50 stands for the concentration needed to halve the response being measured. Consider `CCOc1cncc(-c2ccc3ncc4c(c3c2)n(-c2cn(C)nc2Cl)c(=O)n4C)c1` [Example 56.4, 1-(3-Chloro-1-methyl-1H-pyrazol-4-yl)-8-(5-ethoxy-pyridin-3-yl)-3-methyl-1,3-dihydro-imidazo[4,5-c]quinolin-2-one], for which the IC50 in assay [1] was 1 nM; at PI3K gamma, 121 nM. On the same counts, the results for `CCn1cc(-n2c(=O)n(C)c3cnc4ccc(-c5ccc(OCCOC)c(OC)c5)cc4c32)c(C)n1` [Example 30.2, 1-(1-Ethyl-3-methyl-1H-pyrazol-4-yl)-8-[3-methoxy-4-(2-methoxy-ethoxy)-phenyl]-3-methyl-1,3-dihydro-imidazo[4,5-c]quinolin-2-one] are 41 nM and 150 nM. For `CNC(=O)c1ccc(-c2ccc3ncc4c(c3c2)n(-c2cn(C(C)C)nc2C)c(=O)n4C)cn1` [Example 15.3, 5-[1-(1-Isopropyl-3-methyl-1H-pyrazol-4-yl)-3-methyl-2-oxo-2,3-dihydro-1H-imidazo[4,5-c]quinolin-8-yl]-pyridine-2-carboxylic acid methylamide], in that order: 17 nM and 325 nM. For `Cc1nn(C)cc1-n1c(=O)n(C)c2cnc3ccc(-c4cnc5c(c4)ncn5C)cc3c21` [Example 74, 1-(1,3-Dimethyl-1H-pyrazol-4-yl)-3-methyl-8-(3-methyl-3H-imidazo[4,5-b]pyridin-6-yl)-1,3-dihydro-imidazo[4,5-c]quinolin-2-one], in that order: 23 nM and 307 nM. In the case of `Cc1nn(C)cc1-n1c(=O)n(C)c2cnc3ccc(-c4cccc(C(N)=O)c4)cc3c21` [Example 46, 3-[1-(1,3-Dimethyl-1H-pyrazol-4-yl)-3-methyl-2-oxo-2,3-dihydro-1H-imidazo[4,5-c]quinolin-8-yl]-benzamide], the half-maximal inhibitory concentration (IC50) in assay [1] stood at 98 nM; on PI3K gamma, 388 nM. For the molecule `COc1ncc(-c2ccc3ncc4c(c3c2)n(-c2cn(C)nc2C)c(=O)n4C)cc1[N+](=O)[O-]` [Example 66, 1-(1,3-dimethyl-1H-pyrazol-4-yl)-8-(6-methoxy-5-nitro-pyridin-3-yl)-3-methyl-1,3-dihydro-imidazo[4,5-c]quinolin-2-one], at PI3K gamma, the half-maximal inhibitory concentration (IC50) is 356 nM. The same measure, in the same setting: to `COCCOc1ccc(-c2ccc3ncc4c(c3c2)n(-c2cn(C)nc2C)c(=O)n4C)cn1` [Example 18, 1-(1,3-Dimethyl-1H-pyrazol-4-yl)-8-[6-(2-methoxy-ethoxy)-pyridin-3-yl]-3-methyl-1,3-dihydro-imidazo[4,5-c]quinolin-2-one] belongs 397 nM.

In the case of `CCOc1cc(-c2ccc3ncc4c(c3c2)n(-c2c(C)nn(C)c2C)c(=O)n4C)ccc1OC` [Example 28.2, 8-(3-Ethoxy-4-methoxy-phenyl)-3-methyl-1-(1,3,5-trimethyl-1H-pyrazol-4-yl)-1,3-dihydro-imidazo[4,5-c]quinolin-2-one], the IC50 on PI3K gamma came to 174 nM. The same measure, in the same setting: with `COc1ccc(-c2ccc3ncc4c(c3c2)n(-c2ccnn2C)c(=O)n4C)cc1OC` [Example 1.3, 8-(3,4-Dimethoxy-phenyl)-3-methyl-1-(2-methyl-2H-pyrazol-3-yl)-1,3-dihydro-imidazo[4,5-c]quinolin-2-one] the figure was 540 nM; with `Cc1nn(C)cc1-n1c(=O)n(C)c2cnc3ccc(-c4cncc(N(C)S(C)(=O)=O)c4)cc3c21` [Example 121, N-{5-[1-(1,3-Dimethyl-1H-pyrazol-4-yl)-3-methyl-2-oxo-2,3-dihydro-1H-imidazo[4,5-c]quinolin-8-yl]-pyridin-3-yl}-N-methyl-methanesulfonamide], 184 nM.

Take `CNC(=O)c1cc(-c2ccc3ncc4c(c3c2)n(-c2cn(C(C)C)nc2C)c(=O)n4C)cnc1N` [Example 224.2, 2-Amino-5-[1-(1-isopropyl-3-methyl-1H-pyrazol-4-yl)-3-methyl-2-oxo-2,3-dihydro-1H-imidazo[4,5-c]quinolin-8-yl]-N-methyl-nicotinamide]: the IC50 in assay [1] was 20 nM. Same read-out and setting: with `Cc1nn(C)cc1-n1c(=O)n(C)c2cnc3ccc(-c4cnc(CO)c(OC(C)C)c4)cc3c21` [Example 190, 1-(1,3-Dimethyl-1H-pyrazol-4-yl)-8-(6-hydroxymethyl-5-isopropoxy-pyridin-3-yl)-3-methyl-1,3-dihydro-imidazo[4,5-c]quinolin-2-one] the figure was 2 nM; with `Cc1nn(C)cc1-n1c(=O)n(C)c2cnc3ccc(-c4cnc5cc[nH]c5c4)cc3c21` [Example 99, 1-(1,3-Dimethyl-1H-pyrazol-4-yl)-3-methyl-8-(1H-pyrrolo[3,2-b]pyridin-6-yl)-1,3-dihydro-imidazo[4,5-c]quinolin-2-one], 4 nM. Still for that read-out and setting: with `Cc1nn(C)c(C)c1-n1c(=O)n(C)c2cnc3ccc(-c4cnc(N)c(F)c4)cc3c21` [Example 142.1, 8-(6-Amino-5-fluoro-pyridin-3-yl)-3-methyl-1-(1,3,5-trimethyl-1H-pyrazol-4-yl)-1,3-dihydro-imidazo[4,5-c]quinolin-2-one] the figure was 36 nM; with `CCN(C)C(=O)Cn1cc(-n2c(=O)n(C)c3cnc4ccc(-c5cnc(N6CCCC6)nc5)cc4c32)c(C)n1` [Example 140.1, N-Ethyl-N-methyl-2-{3-methyl-4-[3-methyl-2-oxo-8-(2-pyrrolidin-1-yl-pyrimidin-5-yl)-2,3-dihydro-imidazo[4,5-c]quinolin-1-yl]-pyrazol-1-yl}-acetamide], 5 nM; with `Cc1nn(C)cc1-n1c(=O)n(C)c2cnc3ccc(-c4cncc(C(C)(C)C#N)c4)cc3c21` [Example 220.1, 2-{5-[1-(1,3-Dimethyl-1H-pyrazol-4-yl)-3-methyl-2-oxo-2,3-dihydro-1H-imidazo[4,5-c]quinolin-8-yl]-pyridin-3-yl}-2-methyl-propionitrile], 1 nM. Still for that read-out and setting: with `CCNc1cc(-c2ccc3ncc4c(c3c2)n(-c2c(C)nn(CC(=O)N(C)C)c2C)c(=O)n4C)cnc1C` [Example 87.5, 2-{4-[8-(5-Ethylamino-6-methyl-pyridin-3-yl)-3-methyl-2-oxo-2,3-dihydro-imidazo[4,5-c]quinolin-1-yl]-3,5-dimethyl-pyrazol-1-yl}-N,N-dimethyl-acetamide] the figure was 180 nM; with `COc1ncc(-c2ccc3ncc4c(c3c2)n(-c2cn(C)nc2C)c(=O)n4C)c(OC)n1` [Example 234.2, 8-(2,4-Dimethoxy-pyrimidin-5-yl)-1-(1,3-dimethyl-1H-pyrazol-4-yl)-3-methyl-1,3-dihydro-imidazo[4,5-c]quinolin-2-one], 1 nM. For `CCN(C)C(=O)Cn1cc(-n2c(=O)n(C)c3cnc4ccc(-c5ccccc5)cc4c32)c(C)n1` [Example 135, N-Ethyl-N-methyl-2-[3-methyl-4-(3-methyl-2-oxo-8-phenyl-2,3-dihydro-imidazo[4,5-c]quinolin-1-yl)-pyrazol-1-yl]-acetamide], the 50% inhibitory concentration (IC50) in assay [1] is 6 nM.

Regarding `CCN(C)C(=O)Cn1cc(-n2c(=O)n(C)c3cnc4ccc(-c5cncc(OC(C)C)c5)cc4c32)c(C)n1` [Example 58.5, N-Ethyl-2-{4-[8-(5-isopropoxy-pyridin-3-yl)-3-methyl-2-oxo-2,3-dihydro-imidazo[4,5-c]quinolin-1-yl]-3-methyl-pyrazol-1-yl}-N-methyl-acetamide], the IC50 in assay [1] stood at 3 nM. On the same count and under the same terms, to `COc1ncc(-c2ccc3ncc4c(c3c2)n(-c2cn(C)nc2C)c(=O)n4C)cc1C(N)=O` [Example 125.2, 5-[1-(1,3-Dimethyl-1H-pyrazol-4-yl)-3-methyl-2-oxo-2,3-dihydro-1H-imidazo[4,5-c]quinolin-8-yl]-2-methoxy-nicotinamide] belongs 5 nM; to `CCn1cc(-n2c(=O)n(C)c3cnc4ccc(-c5cnc(N)c(COC)c5)cc4c32)c(C)n1` [Example 168.2, 8-(6-Amino-5-methoxymethyl-pyridin-3-yl)-1-(1-ethyl-3-methyl-1H-pyrazol-4-yl)-3-methyl-1,3-dihydro-imidazo[4,5-c]quinolin-2-one], < 0.5 nM; to `Cc1nn(C)cc1-n1c(=O)n(C)c2cnc3ccc(-c4cncc(C5(O)CCCC5)c4)cc3c21` [Example 218, 1-(1,3-Dimethyl-1H-pyrazol-4-yl)-8-[5-(1-hydroxy-cyclopentyl)-pyridin-3-yl]-3-methyl-1,3-dihydro-imidazo[4,5-c]quinolin-2-one], < 0.5 nM. Consider `CNc1ncc(-c2ccc3ncc4c(c3c2)n(-c2cc(C)nn2C)c(=O)n4C)cc1Cl` [Example 146.5, 8-(5-Chloro-6-methylamino-pyridin-3-yl)-1-(2,5-dimethyl-2H-pyrazol-3-yl)-3-methyl-1,3-dihydro-imidazo[4,5-c]quinolin-2-one], for which the IC50 in assay [1] was found to be 2.66 nM. As for `CNc1ncc(-c2ccc3ncc4c(c3c2)n(-c2c(C)nn(C)c2C)c(=O)n4C)cc1F` [Example 141.1, 8-(5-Fluoro-6-methylamino-pyridin-3-yl)-3-methyl-1-(1,3,5-trimethyl-1H-pyrazol-4-yl)-1,3-dihydro-imidazo[4,5-c]quinolin-2-one], the IC50 in assay [1] came to 34 nM. On the same count and under the same terms, with `CCn1cc(-n2c(=O)n(C)c3cnc4ccc(-c5cnc(COC)c(OC)c5)cc4c32)c(C)n1` [Example 195.3, 1-(1-Ethyl-3-methyl-1H-pyrazol-4-yl)-8-(5-methoxy-6-methoxymethyl-pyridin-3-yl)-3-methyl-1,3-dihydro-imidazo[4,5-c]quinolin-2-one] the figure was 31 nM; with `Cc1nn(C)cc1-n1c(=O)n(C)c2cnc3ccc(-c4cnc5c(c4)OCCN5C)cc3c21` [Example 209, 1-(1,3-Dimethyl-1H-pyrazol-4-yl)-3-methyl-8-(4-methyl-3,4-dihydro-2H-pyrido[3,2-b][1,4]oxazin-7-yl)-1,3-dihydro-imidazo[4,5-c]quinolin-2-one], 2 nM.
